Measured values taken from patent US11026943B2, “Aminoquinoline derivatives and uses thereof” (UNIVERSITY OF DELHI, priority 2012, dated 2021).

test: Solubility (solvent listed in compound tables); assay type: physicochemical; settings: solvent named, Table 3

Row | Structure (SMILES) | SOLUBILITY
1 | Cc1cc(NCCCCNc2ccnc3cc(Cl)ccc23)nc(Cl)n1 [SM 498A] | DMSO
2 | Cc1cc(N2CCN(c3ccnc4cc(Cl)ccc34)CC2)nc(NC2CCCCC2)n1 [ATH 241] | DMSO
3 | Clc1ccc(Nc2ccnc(N3CCN(c4ccnc5cc(Cl)ccc45)CC3)n2)cc1 [ATH 227] | DMSO
4 | Clc1ccc2c(NCCCNc3nccc(Cl)n3)ccnc2c1 [SM 719B] | DMSO
5 | Clc1ccc2c(NCCNc3nc(Cl)cc(N4CCOCC4)n3)ccnc2c1 [SM 700] | DMSO
6 | CN1CCN(c2cc(Cl)nc(NCCCNc3ccnc4cc(Cl)ccc34)n2)CC1 [SM 717] | DMSO
7 | Fc1ccc(Nc2nc(NCCCCNc3ccnc4cc(Cl)ccc34)nc(N3CCOCC3)n2)cc1 [SM 357] | DMSO
8 | OCCNc1nccc(N2CCN(c3ccnc4cc(Cl)ccc34)CC2)n1 [ATH 254] | DMSO
9 | COc1ccc2nc3cc(Cl)ccc3c(NCCNc3nc(N4CCN(c5ccccc5)CC4)nc(N4CCN(c5ccccc5)CC4)n3)c2c1 [ATH 178] | DMSO
10 | CN1CCN(c2nc(Cl)cc(NCCCNc3ccnc4cc(Cl)ccc34)n2)CC1 [SM 713] | DMSO
11 | Clc1ccc2c(NCCCCNc3nc(Nc4ccccc4)nc(N4CCOCC4)n3)ccnc2c1 [SM 359] | DMSO
12 | CN1CCN(c2nccc(NCCCNc3ccnc4cc(Cl)ccc34)n2)CC1 [SM 722] | DMSO
13 | COc1cc(Nc2nc(NCCNc3c4ccc(Cl)cc4nc4ccc(OC)cc34)nc(N3CCCCC3)n2)cc(OC)c1 [ATH 158] | DMSO
14 | Cc1cc(NCCCCNc2ccnc3cc(Cl)ccc23)nc(N2CCOCC2)n1 [SM 500] | DMSO
15 | Clc1ccc2c(NCCCNc3ccnc(Cl)n3)ccnc2c1 [SM 719A] | DMSO
16 | COc1ccc(Nc2nc(NCCNc3c4ccc(Cl)cc4nc4ccc(OC)cc34)nc(N3CCOCC3)n2)cc1 [ATH 182] | DMSO
17 | COc1ccc(Nc2ccnc(N3CCN(c4ccnc5cc(Cl)ccc45)CC3)n2)cc1 [ATH 220] | DMSO
18 | Cc1cc(NCCCCCCNc2ccnc3cc(Cl)ccc23)nc(N2CCCCC2)n1 [SM 505] | DMSO
19 | Cc1cc(Nc2ccc(F)cc2)nc(N2CCN(c3ccnc4cc(Cl)ccc34)CC2)n1 [ATH 247] | DMSO
20 | OCCCCNc1nc(NCCCNc2ccnc3cc(Cl)ccc23)nc(N2CCOCC2)n1 [SM 361] | DMSO
21 | OCCCNc1nccc(N2CCN(c3ccnc4cc(Cl)ccc34)CC2)n1 [ATH 255] | DMSO

Row | Structure (SMILES) | SOLUBILITY
22 | Clc1ccc2c(NCCCNc3nccc(N4CCCCC4)n3)ccnc2c1 [SM 724] | DMSO
23 | Cc1cc(NCCNc2ccnc3cc(Cl)ccc23)nc(N2CCN(C)CC2)n1 [SM 491] | DMSO
24 | Clc1ccc2c(NCCNc3cc(Cl)nc(N4CCOCC4)n3)ccnc2c1 [SM 696] | DMSO
25 | Clc1ccc2c(NCCCNc3cc(Cl)nc(N4CCOCC4)n3)ccnc2c1 [SM 712] | DMSO
26 | CCc1ccc(Nc2nc(NCCNc3ccnc4cc(Cl)ccc34)nc(N3CCOCC3)n2)cc1 [SM 335] | DMSO
27 | Clc1ccc2c(NCCNc3nc(N4CCOCC4)nc(N4CCOCC4)n3)ccnc2c1 [SM 142] | DMSO
28 | COc1cc(Nc2ccnc(N3CCN(c4ccnc5cc(Cl)ccc45)CC3)n2)cc(OC)c1 [ATH 214] | DMSO
29 | OCCCNc1nc(NCCCNc2ccnc3cc(Cl)ccc23)nc(N2CCOCC2)n1 [SM 351] | DMSO
30 | Clc1ccc2c(NCCCNc3nc(Cl)cc(N4CCOCC4)n3)ccnc2c1 [SM 716] | DMSO
31 | OCCCCNc1nc(NCCNc2ccnc3cc(Cl)ccc23)nc(N2CCCCC2)n1 [SM 373] | DMSO
32 | Clc1ccc2c(N3CCN(c4ccnc(Cl)n4)CC3)ccnc2c1 [ATH 218] | DMSO
33 | CCN1CCN(c2nc(C)cc(NCCCCNc3ccnc4cc(Cl)ccc34)n2)CC1 [SM 502] | DMSO
34 | COc1ccc(Nc2nc(NCCCNc3ccnc4cc(Cl)ccc34)nc(N3CCOCC3)n2)cc1 [SM 337] | DMSO
35 | Clc1ccc2c(NCCNc3nc(Nc4ccccc4)nc(Nc4ccccc4)n3)ccnc2c1 [SM 129] | DMSO
36 | CCN1CCN(c2nc(C)cc(NCCCNc3ccnc4cc(Cl)ccc34)n2)CC1 [SM 497] | DMSO
37 | CCc1ccc(Nc2nc(NCCCCNc3ccnc4cc(Cl)ccc34)nc(N3CCOCC3)n2)cc1 [SM 358] | DMSO
38 | Clc1ccc2c(NCCNc3nc(Cl)cc(Cl)n3)ccnc2c1 [SM 695B] | DMSO
39 | Cc1cc(NCCCCCCNc2ccnc3cc(Cl)ccc23)nc(Cl)n1 [SM 504A] | DMSO
40 | Cc1ccccc1Nc1nc(Nc2ccccc2C)nc(NC(C)CNc2ccnc3cc(Cl)ccc23)n1 (stereo not shown) [SM 146] | DMSO
41 | Clc1ccc2c(N3CCN(c4nccc(Nc5ccccc5)n4)CC3)ccnc2c1 [ATH 232] | DMSO
42 | Cc1cc(NCCCNc2ccnc3cc(Cl)ccc23)nc(N2CCCCC2)n1 [SM 485] | DMSO

Row | Structure (SMILES) | SOLUBILITY
43 | Clc1ccc2c(NCCNc3ccnc(N4CCOCC4)n3)ccnc2c1 [SM 731] | DMSO
44 | Clc1ccc2c(NCCNc3nccc(N4CCCCC4)n3)ccnc2c1 [SM 732] | DMSO
45 | COc1cc(Nc2nc(NCCNc3c4ccc(Cl)cc4nc4ccc(OC)cc34)nc(N3CCN(c4ccccc4)CC3)n2)cc(OC)c1 [ATH 170] | DMSO
46 | COc1ccc(Nc2nc(NCCNCc3c4ccc(Cl)cc4nc4ccc(OC)cc34)nc(N3CCOCC3)n2)cc1 [ATH 184] | DMSO
47 | Clc1ccc2c(NCCNc3ccnc(Cl)n3)ccnc2c1 [SM 728A] | DMSO
48 | CN1CCN(c2ccnc(NCCCNc3ccnc4cc(Cl)ccc34)n2)CC1 [SM 726] | DMSO
49 | Clc1ccc2c(NCCNc3nc(Cl)cc(N4CCCCC4)n3)ccnc2c1 [SM 699] | DMSO
50 | Clc1ccc2c(NCCNc3nc(Cl)nc(Nc4ccccc4)n3)ccnc2c1 [SM 136] | DMSO
51 | COc1ccc(Nc2nc(NCCNc3ccnc4cc(Cl)ccc34)nc(N3CCOCC3)n2)cc1 [SM 332] | DMSO
52 | Cc1cc(NCCCCNc2ccnc3cc(Cl)ccc23)nc(N2CCN(C)CC2)n1 [SM 501] | DMSO
53 | Clc1ccc2c(NCCCNc3ccnc(N4CCOCC4)n3)ccnc2c1 [SM 721] | DMSO
54 | Fc1ccc(Nc2nc(NCCNc3ccnc4cc(Cl)ccc34)nc(N3CCOCC3)n2)cc1 [SM 334] | DMSO
55 | CCN1CCN(c2nc(Cl)cc(NCCCNc3ccnc4cc(Cl)ccc34)n2)CC1 [SM 714] | DMSO
56 | Cc1cc(N2CCN(c3ccnc4cc(Cl)ccc34)CC2)nc(N2CCCC2)n1 [ATH 256] | DMSO
57 | Cc1cc(NCCCCCCNc2ccnc3cc(Cl)ccc23)nc(N2CCOCC2)n1 [SM 506] | DMSO
58 | OCCCNc1nc(NCCCCNc2ccnc3cc(Cl)ccc23)nc(N2CCOCC2)n1 [SM 349] | DMSO
59 | Clc1ccc2c(NCCCNc3cc(Cl)nc(N4CCCCC4)n3)ccnc2c1 [SM 711] | DMSO
60 | Cc1cc(NCCCCCCNc2ccnc3cc(Cl)ccc23)nc(N2CCN(C)CC2)n1 [SM 507] | DMSO
61 | COc1ccc2nc3cc(Cl)ccc3c(CNCCNc3nc(N4CCN(c5ccccc5)CC4)nc(N4CCN(c5ccccc5)CC4)n3)c2c1 [ATH 179] | DMSO
62 | Clc1ccc2c(NCCCNc3cc(Cl)nc(Cl)n3)ccnc2c1 [SM 710A] | DMSO
63 | CCN1CCN(c2nccc(NCCCNc3ccnc4cc(Cl)ccc34)n2)CC1 [SM 723] | DMSO

same assay, conditions: solvent named, Table 4

Row | Structure (SMILES) | SOLUBILITY
64 | Cc1ccc(Nc2cc(C)nc(NCCCNc3ccnc4cc(Cl)ccc34)n2)cc1 [DKG858] | DMSO
65 | Cc1ccc(Nc2cc(C)nc(NCCCCNc3ccnc4cc(Cl)ccc34)n2)cc1 [DKG859] | DMSO
66 | COc1ccc(Nc2ccnc(NCCNc3ccnc4cc(Cl)ccc34)n2)cc1 [DKG825] | DMSO
67 | Clc1ccc2c(NCCNc3nccc(Nc4ccc(Br)cc4)n3)ccnc2c1 [DKG809] | DMSO
68 | COc1ccc(Nc2cc(C)nc(NCCCNc3ccnc4cc(Cl)ccc34)n2)cc1 [DKG838] | DMSO
69 | Fc1ccc(Nc2ccnc(NCCNc3ccnc4cc(Cl)ccc34)n2)cc1 [DKG817] | DMSO
70 | Cc1ccc(Nc2ccnc(NCCNc3ccnc4cc(Cl)ccc34)n2)cc1 [DKG805] | DMSO
71 | Clc1ccc2c(NCCCCNc3nccc(Nc4ccc(Br)cc4)n3)ccnc2c1 [DKG811] | DMSO
72 | Cc1cc(Nc2ccc(Br)cc2)nc(NCCCNc2ccnc3cc(Cl)ccc23)n1 [DKG850] | DMSO
73 | Clc1ccc(Nc2ccnc(NCCCNc3ccnc4cc(Cl)ccc34)n2)cc1 [DKG814] | DMSO
74 | Fc1ccc(Nc2ccnc(NCCCNc3ccnc4cc(Cl)ccc34)n2)cc1 [DKG818] | DMSO
75 | Cc1cc(Nc2ccc(Br)cc2)nc(NCCCCNc2ccnc3cc(Cl)ccc23)n1 [DKG851] | DMSO
76 | Clc1ccc(Nc2ccnc(NCCNc3ccnc4cc(Cl)ccc34)n2)cc1 [DKG813] | DMSO
77 | Cc1cc(Nc2ccc(F)cc2)nc(NCCCNc2ccnc3cc(Cl)ccc23)n1 [DKG854] | DMSO
78 | Clc1ccc2c(NCCCNc3nccc(Nc4ccccc4)n3)ccnc2c1 [DKG822] | DMSO

same assay, conditions: solvents listed for the compound

Row | Structure (SMILES) | SOLUBILITY
79 | Cc1cc(NCCCNc2ccnc3cc(Cl)ccc23)nc(NCCCO)n1 [MT1-146] | MeOH, DMSO
80 | Cc1cc(NCCNc2ccnc3cc(Cl)ccc23)nc(NCCO)n1 [MT1-185] | MeOH, DMSO
81 | Cc1cc(NCCCCNc2ccnc3cc(Cl)ccc23)nc(NCCCCO)n1 [MT1-194] | MeOH, DMSO
82 | Cc1cc(NCCCNc2ccnc3cc(Cl)ccc23)nc(NCCCCCO)n1 [MT1-148] | MeOH, DMSO
83 | OCCCNc1nccc(NCCCNc2ccnc3cc(Cl)ccc23)n1 [MT1-121] | MeOH, DMSO
84 | Cc1cc(NCCCCNc2ccnc3cc(Cl)ccc23)nc(NCCCO)n1 [MT1-193] | MeOH, DMSO
85 | OCCCCCNc1nccc(NCCCCNc2ccnc3cc(Cl)ccc23)n1 [MT1-162] | MeOH, DMSO
86 | OCCCCNc1nccc(NCCCCNc2ccnc3cc(Cl)ccc23)n1 [MT1-158] | MeOH, DMSO
87 | OCCCNc1nccc(NCCCCNc2ccnc3cc(Cl)ccc23)n1 [MT1-157] | MeOH, DMSO
88 | Cc1cc(NCCCCNc2ccnc3cc(Cl)ccc23)nc(NCCO)n1 [MT1-192] | MeOH, DMSO
